# Results from patent US6143875A, “Antibody to DNase involved in apoptosis” (priority 1994, dated 2000).
# Numbering of substitutions follows the chain as printed. Values joined by “and” are separate entries in the source; they are usually repeats but may differ in a detail not shown here. Equal values may be shown once.
# T1: DNase γ (Rattus norvegicus, UniProt O89107)
# T1 sequence (O89107 26-310): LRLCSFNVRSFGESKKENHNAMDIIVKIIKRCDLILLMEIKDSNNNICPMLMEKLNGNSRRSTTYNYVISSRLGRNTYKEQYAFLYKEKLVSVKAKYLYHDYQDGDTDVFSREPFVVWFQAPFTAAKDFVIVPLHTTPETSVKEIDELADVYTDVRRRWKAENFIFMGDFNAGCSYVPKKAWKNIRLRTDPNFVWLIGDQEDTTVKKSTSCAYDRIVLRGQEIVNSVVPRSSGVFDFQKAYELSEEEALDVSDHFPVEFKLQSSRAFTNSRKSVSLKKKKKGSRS
# B1: DNase γ: novel endonuclease of rat cell nuclei cleaving linker sites of chromatin DNA; SEQ ID NO: 1, amino acids 26-310 (protein)
# chain: T1 sequence (O89107 26-310) with N163I, L218V
# What was measured:
# DNase γ = molecular target: T1, DNase γ; assay: DNase (endonuclease) activity assay, HeLa S3 nuclei as substrate (Assay 1); assay type: biochemical; conditions: for optimal concentration for full DNase γ activity: both Ca2+ and Mg2+ required, other cation at 3 mM; for DNase activity (%) γ: optimal mixture =100%
# Description: (§1) The activity of endonuclease (DNase) can be assayed by observing fragmentation of chromosomal DNA in the nucleus on 2% agarose gel electrophoresis using, as a substrate, the nucleus of HeLa S3 cell (human cervical carcinoma epithelial cell) which is completely free of endogenous endonuclease [Biochem. Biophys. Res. Commun. 194, (1993), pp, 30-31].
# (§2) To be specific, a reaction mixture (30 μl) of HeLa S3 cells (1.67×10^7 /ml) and DNase fraction is incubated at 37° C. for 60 minutes and the reaction is stopped by cooling same on ice. Then, the reaction mixture after reaction is centrifuged at 20,000× g for 20 seconds, and the precipitated nuclei are dissolved in a lysis buffer [50 mM Tris-HCl (pH 7.8), 10 mM EDTA, 0.5% w/v N-lauronyl sarcosylate Na]. The obtained DNA is thoroughly treated with 0.5 mg/ml RNase A for 20 minutes and with 0.5 mg/ml proteinase K for 30 minutes, after which they are subjected to 2% agarose gel electrophoresis. […] The ratio of fragmentation (percent fragmentation) is calculated from the density of DNA fragments with a molecular weight of less than 5 kb.
# (§3) As a suitable reaction solution for the assay of the activity of DNases α and β, 50 mM MES-NaOH (-pH 5.6) buffer containing 3 mM MgCl2, 1 mM 2-mercaptoethanol and 0.1 mM PMSF is used. As a suitable reaction solution for the assay of the activity of DNase γ, 50 mM MOPS-NaOH (pH 7.2) buffer containing 3 mM CaCl2, 3 mM MgCl2, 1 mM 2-mercaptoethanol and 0.1 mM PMSF is used.
# (§4) Effects of divalent cations on the activity of DNase α, […] were examined. To be specific, the effect of Mg^2+ was examined by assaying the activity of purified DNases α, β and γ in the presence of 3 mM CaCl2 with increasing concentrations of MgCl2. The effect of Ca^2+ was examined by assaying the activity of DNases α, β and γ purified in the same manner, with increasing concentrations of CaCl2 in the presence of 3 mM MgCl2. The effect of Zn^2+ was examined in 50 mM […] (pH 5.6) buffer containing 3 mM MgCl2, 1 mM 2-mercaptoethanol and 0.1 mM PMSF with increasing concentrations of ZnCl2 with regard to DNases α and β, and it was examined in 50 mM MOPS-NaOH (pH 7.2) buffer containing 3 mM CaCl2, 3 mM MgCl2, 1 mM 2-mercaptoethanol and 0.1 mM PMSF, with increasing concentrations of ZnCl2 with regard to DNase γ. The results are shown in FIG. 8, FIG. 8B, and FIG. 8C. As a result, DNase γ required both Ca^2+ and Mg^2+ for full activity, wherein the optimal concentration of the both was 1-3 mM (FIG. 8A and FIG. 8B). DNase γ was sensitive to Zn^2+, and its activity was inhibited by 50% by Zn^2+ with a low concentration of 40 μM (FIG. 8c).
# (§5) The activity of DNases α and β was calculated relative to the endonuclease activity which was assayed using HeLa S3 cell nuclear chromatin DNA as a substrate and 50 mM MES-NaOH (pH 5.6) buffer containing 3 mM MgCl2, 1 mM 2-mercaptoethanol and 0.1 mM PMSF as a reaction solution, and taken as 100%; and the activity of DNase γ was calculated relative to the endonuclease activity which was assayed using HeLa S3 cell nuclear chromatin DNA as a substrate and 50 mM MOPS-NaOH (pH 7.2) buffer containing 3 mM CaCl2, 3 mM MgCl2, 1 mM 2-mercaptoethanol and 0.1 mM PMSF as a reaction solution, and taken as 100%. In the Table, "-" means deletion of said components from the above-mentioned optimal reaction mixture and "+" means addition of said components to the above-mentioned optimal reaction mixture.
# DNase α = assay: as above; assay type: biochemical, rat; conditions: for effect of divalent cation on DNase α activity: increasing concentrations of MgCl2 or CaCl2
# Description: as §1, §2, §3, §4, §5
# DNase β = assay: as above; assay type: biochemical, rat; conditions: for effect of divalent cation on DNase β activity: increasing concentrations of MgCl2 or CaCl2
# Description: as §1, §2, §3, §4, §5
# [1] = system: HeLa S3 cell nuclear chromatin DNA; assay: Endonuclease activity of purified DNases in HeLa S3 nuclear assay system; assay type: biochemical, human
# Description: as §1, §2, §3
# The optimal pH for the activity of DNases α, β and γ was determined by assaying HeLa S3 nuclei in various buffers from acidic to basic (Reference Example 3, Assay 1) and calculating from the percentage of DNA fragmentation.
# as §5
# [2] = system: DNA derived from HeLa S3 cell nuclei; assay: End labeling method, DNA cleavage mode; assay type: biochemical, human; conditions: 3' and 5' end labeling with/without alkaline phosphatase
# [3] = +3 mM added to optimal reaction mixture (=100%)
# [4] = +aurintricarboxylate 30 μM, optimal mixture =100%
# [5] = +aurintricarboxylate 100 μM, optimal mixture =100%
# [6] = +Mn2+ 3 mM, -Mg2+/Ca2+, optimal mixture =100%
# [7] = +Zn2+ 0.1 mM, optimal mixture =100%
# [8] = increasing ZnCl2 in pH 5.6 buffer, 3 mM MgCl2, read-out: Inhibition by Zn2+: IC50
# [9] = up to the concentration of 1 mM
molecule,measurement,setting,value
[Cl-].[Cl-].[Mg+2] [Mg^2+],optimal concentration for full DNase γ activity,DNase γ,1 to 3 mM
same,DNase activity (%) α,DNase α; [3],104%
same,effect of divalent cation on DNase α activity,DNase α,not influenced
same,DNase activity (%) β,DNase β; [3],102%
same,effect of divalent cation on DNase β activity,DNase β,not influenced
[Ca+2].[Cl-].[Cl-] [Ca^2+],optimal concentration for full DNase γ activity,DNase γ,1 to 3 mM
same,DNase activity (%) α,DNase α; [3],101%
same,effect of divalent cation on DNase α activity,DNase α,not influenced
same,DNase activity (%) β,DNase β; [3],104%
same,effect of divalent cation on DNase β activity,DNase β,not influenced
O=C(O)C1=CC(=C(c2ccc(O)c(C(=O)O)c2)c2ccc(O)c(C(=O)O)c2)C=CC1=O [aurintricarboxylic acid],DNase activity (%) γ,DNase γ; +aurintricarboxylate 30 μM,29%
same,DNase activity (%) γ,DNase γ; +aurintricarboxylate 100 μM,0%
same,inhibition of DNase γ activity,DNase γ; at a concentration of 100 μM,completely inhibited
same,inhibition of DNase α activity,DNase α,completely inhibited
same,DNase activity (%) α,DNase α; [4],32%
same,DNase activity (%) α,DNase α; [5],0%
same,DNase activity (%) β,DNase β; [4],0%
same,DNase activity (%) β,DNase β; [5],0%
same,inhibition of DNase β activity,DNase β; at a concentration of 100 μM,completely inhibited
[Mn+2] [Mn^2+],DNase activity (%) γ,"DNase γ; +Mn2+ 3 mM, -Mg2+/Ca2+",45%
same,DNase activity (%) α,DNase α; [6],104%
same,DNase activity (%) β,DNase β; [6],103%
[Cl-].[Cl-].[Zn+2] [Zn^2+],DNase activity (%) γ,DNase γ; +Zn2+ 0.1 mM,21%
same,IC50,"DNase γ; increasing ZnCl2 in 50 mM MOPS-NaOH (pH 7.2), 3 mM CaCl2, 3 mM MgCl2, read-out: Inhibition by Zn2+: IC50",40 µM
same,DNase activity (%) α,DNase α; [7],90%
same,IC50,DNase α; [8],≥ 1 mM
same,effect of Zn2+ on DNase α activity,DNase α; [9],not influenced
same,DNase activity (%) β,DNase β; [7],93%
same,IC50,DNase β; [8],≥ 1 mM
same,effect of Zn2+ on DNase β activity,DNase β; [9],not influenced
B1,Divalent cation dependency,[1],"Ca^2+ /Mg^2+, Mn^2+ dependent"
same,DNase activity (%),[1]; -2-mercaptoethanol (deleted from optimal reaction mixture =100%),96%
same,DNase activity (%),[1]; -Ca2+ (deleted from optimal reaction mixture =100%),1%
same,DNase activity (%),[1]; -Mg2+ (deleted from optimal reaction mixture =100%),16%
same,DNase activity (%),[1]; -PMSF (deleted from optimal reaction mixture =100%),94%
same,DNA cleavage mode,[2],"3'-OH/5'-P termini and 3'--OH, 5'-P end forming type"
